Literature values as cited in the CATMoS acute toxicity set (Mansouri et al. 2021).
Several values for one entry are separate records, joined by “and”; a condition that tells them apart may be missing. Equal values may be shown once.

Experiment: rat acute oral toxicity
Conditions: in vivo

Structure (SMILES)	LD50
CCN(CC)C(=O)N[C@H]1C[C@@H]2c3cccc4[nH]cc(c34)C[C@H]2N(C)C1	100 mg/kg
CC(C)NC(=O)OCC(O)C1COc2ccccc2O1 (stereo not drawn)	1500 mg/kg
CC1(C)CCCO1	4000 mg/kg
COc1ccc2c(c1)OC(C)(C)[C@H](c1ccccc1)[C@H]2c1ccc(OCCN)cc1	500 mg/kg
CCC(C)OC(C)=O (stereo not drawn)	3200 mg/kg
COP(=S)(OC)SC(C)N1CC(=O)C(=O)C1 (stereo not drawn)	5.6 mg/kg
O=C(O)CCC1(CCC(=O)O)c2ccccc2-c2ccccc21	2140 mg/kg
CC(C)c1noc2nc(C(C)(C)C)ncc12	15400 mg/kg
CC(C)=CC1C(C(=O)OCc2cccc(Oc3ccccc3)c2)C1(C)C (stereo not drawn)	500 mg/kg
Cc1ccc(C(=O)c2ccc(CC(=O)NNCC(=O)N3CCN(C)CC3)n2C)cc1	978 mg/kg
CCCC(CCC)C(C)NC(=O)CC (stereo not drawn)	700 mg/kg
COc1ccc(OC)c(NC(=O)CNC(=O)Cc2ccc(C(=O)c3ccc(C)cc3)n2C)c1	1470 mg/kg
CC(=O)Oc1ccc(C#N)cc1	500 mg/kg
Nc1nc2cc(Br)ccc2o1	1000 mg/kg
CCOC(=O)C(C#N)C(C)=O (stereo not drawn)	500 mg/kg
O=C(OCCOCCN1CCCCC1)N1c2ccccc2Sc2cccnc21	530 mg/kg
N#CCCCCCN	820 mg/kg
CCOc1occ2cnc(C)c(O)c12	2150 mg/kg
CCCCOCCCOC(=O)COc1ccc(Cl)cc1Cl	500 mg/kg
CC[N+](CC)(CC)CCO	1000 mg/kg
COP(=S)(OC)SC1OCCOC1SP(=S)(OC)OC (stereo not drawn)	350 mg/kg
CCCN=C(NCCC)C(OCC)c1ccc(Cl)cc1 (stereo not drawn)	47 mg/kg
CC(C)(SC(=O)N1CCCCC1)c1ccccc1	946 mg/kg
Nc1ccc([N+](=O)[O-])cc1Cl	6430 mg/kg

Structure (SMILES)	LD50
O=C(O)CSc1nc(-c2ccccc2)ns1	500 mg/kg
Cc1oncc1C(=O)Nc1ccc(C(F)(F)F)cc1	235 mg/kg
Cc1cccc(C)c1N(COC(C)C)C(=O)CCl	975 mg/kg
CN1CCN(C[C@H]2C(=O)Nc3ccccc3S[C@H]2c2ccccc2)CC1	830 mg/kg
CCOc1ccc(N2CC(C(=O)N3CCNCC3)CC2=O)cc1 (stereo not drawn)	550 mg/kg
O=C(CS(=O)Cc1ccco1)NC/C=C\COc1cc(CN2CCCCC2)ccn1 (stereo not drawn)	1250 mg/kg
COP(=S)(OC)SC(C(=O)OC(C)C)c1ccccc1 (stereo not drawn)	205 mg/kg
CCOP(=O)(OCC)Sc1ccc([N+](=O)[O-])cc1	4.41 mg/kg
COc1ccc2c(=O)oc3c(OC)cc(CCN(C)C)c4c(=O)oc1c2c34	518 mg/kg
CCC1OCC(=NOC(=O)NC)S1 (stereo not drawn)	60 mg/kg
CCCCNC(=O)n1c(NC(=O)OC)nc2ccccc21	10000 mg/kg
CC1(C)CCC(NC(=O)[C@@H](N)CCC(=O)O)CC1	1430 mg/kg
CCN(CC)CCOCc1cc(Br)cc(Br)c1OC	500 mg/kg
CNC(=O)Oc1ccccc1C1OCCO1	25 mg/kg
COC(OC)c1ccccc1[N+](=O)[O-]	3420 mg/kg
CN(C)C1CSSC1	420 mg/kg
CNC(C)Cc1ccccc1OC (stereo not drawn)	630 mg/kg
O[C@H](c1cc(-c2ccc(C(F)(F)F)cc2)nc(C(F)(F)F)c1)[C@H]1CCCCN1	518 mg/kg
CC(C)(C)c1cc(Br)c2nc(C(F)(F)F)[nH]c2c1	161 mg/kg
C[N+]1(C)CCCCC1	270 mg/kg and 464 mg/kg
OC1(c2ccc(Cl)c(C(F)(F)F)c2)CCN(CCCC(c2ccc(F)cc2)c2ccc(F)cc2)CC1	160 mg/kg
C=S	365 mg/kg
O=C(O)Cc1ccccc1Oc1ccc(Cl)cc1Cl	2280 mg/kg
COP(=S)(OC)SCSc1cc(Cl)ccc1Cl	220 mg/kg

Structure (SMILES)	LD50
CCCOC(=O)c1cc(O)c(O)c(O)c1	2100 mg/kg
Cc1nnc(NS(=O)(=O)c2ccc(N)cc2)s1	3500 mg/kg
Cc1ccc(C(C)OC(=O)C2(C)CCC(C(=O)O)C2(C)C)cc1 (stereo not drawn)	2810 mg/kg
CC1(C(=O)O)C2CCC(O2)C1C(=O)O (stereo not drawn)	50 mg/kg
CNC(=O)O/N=C/C(C)(C)S(C)=O (stereo not drawn)	0.49 mg/kg
C=C(OP(=O)(OCC)OCC)P(=O)(OC)OC	173 mg/kg
CCCCN1C(=O)c2ccc([N+](=O)[O-])cc2C1=O	1340 mg/kg
N#Cc1ccc([N+](=O)[O-])cc1C#N	850 mg/kg
O=C1NCCN1/N=C/c1ccc([N+](=O)[O-])o1	1680 mg/kg
C1=CC(c2ccc(C3CC=CCC3)cc2)CCC1 (stereo not drawn)	17500 mg/kg
C=CCOC(=O)CC(C)C	230 mg/kg
CCOP(=S)(OCC)Oc1cc(C)n(CC)c(=O)c1	7070 mg/kg
CCP(=S)(CC)Oc1cc(Cl)c(Cl)cc1Cl	100 mg/kg
O=[N+]([O-])c1ccc(Sc2ccc([N+](=O)[O-])cc2)cc1	1490 mg/kg
N#CCCSCCC#N	4210 mg/kg
CCC1(CC)C(=O)N=C(O)NC1=O	600 mg/kg
CCCCOC(=O)CCCCC(=O)OCCCC	12900 mg/kg
Cc1ccc(NCCCc2ccccc2)cc1	1600 mg/kg
NCCCOCCOCCO	6500 mg/kg
CN1CCN(CCCN2c3ccccc3Sc3ccccc32)CC1	1380 mg/kg and 500 mg/kg
Cc1cc(OCC(=O)N[C@@H]2C(=O)N3[C@@H]2SC(C)(C)[C@@H]3C(=O)O)ccc1Cl	4000 mg/kg
CCc1c2c(nc3ccc(OC(=O)N4CCC(N5CCCCC5)CC4)cc13)-c1cc3c(c(=O)n1C2)COC(=O)[C@]3(O)CC	867 mg/kg
Nc1cc(-c2cccs2)no1	1850 mg/kg
CCN(CC)C(=O)c1ccccc1O	580 mg/kg

Structure (SMILES)	LD50
C[N+](C)([O-])c1ccc(N=Nc2ccccc2)cc1	2200 mg/kg
CC(=O)Oc1ccc(C2(c3ccc(OC(C)=O)cc3)C(=O)N(C(C)=O)c3ccccc32)cc1	500 mg/kg
CCCCCCCC(=O)NO	10700 mg/kg
C=CCOC(=O)c1ccc(C(=O)OCC=C)c(C(=O)OCC=C)c1	2400 mg/kg
CCCCOC(OCCCC)C(OCCCC)OCCCC	8900 mg/kg
O=c1[nH]c2[nH]cnc(=O)c2[nH]1	1760 mg/kg
Nc1cccc2cc(S(=O)(=O)O)ccc12	14200 mg/kg
O=[n+]1c2ccccc2n([O-])c2ccc3ccccc3c21	4620 mg/kg
O=NN(CCCl)C(=O)NCCCl	20 mg/kg
O=C(O)c1c(Cl)ccc(Cl)c1O	1560 mg/kg
C/[N+]([O-])=N/CO[C@@H]1O[C@H](CO)[C@@H](O)[C@H](O)[C@H]1O	270 mg/kg
Cc1ccc2ccc(=O)oc2c1	3800 mg/kg
CS(=O)(=O)OC(CCN1CCCCC1)(c1ccccc1)c1ccccc1	1240 mg/kg
c1ccc(Cc2ccccc2)cc1	2250 mg/kg
ClCC[N+]1(CCCCCC[N+]2(CCCl)CCCO2)CCCO1 (stereo not drawn)	30 mg/kg
CCOP(=S)(SC(C)CC)N(C=O)CC (stereo not drawn)	95.9 mg/kg
CCCCCc1cc(O)c2c(c1)OC(C)(C)[C@@H]1CC=C(C)C[C@@H]21	860 mg/kg
CNC(=O)Oc1cc(C)c(C)cc1Cl	30 mg/kg
Cc1ccn(C(N)=O)n1	830 mg/kg and 1100 mg/kg
C[C@]12CCC(=O)C=C1CC[C@@H]1[C@@H]2[C@@H](O)C[C@@]2(C)[C@H]1CC[C@]2(O)C(=O)COP(=O)(O)O	6100 mg/kg
COc1cc2c3cc1Oc1cc(ccc1O)C[C@@H]1c4c(cc(OC)c(O)c4Oc4ccc(cc4)C[C@@H]3N(C)CC2)CC[N+]1(C)C	28 mg/kg
S=C(NNc1ccccc1)NNc1ccccc1	1500 mg/kg
CC(C)c1cccc(C(C)C)c1N=C=O	1410 mg/kg
ClCC(Cl)(Cl)C(Cl)Cl	819 mg/kg

Structure (SMILES)	LD50
CCOC(=O)Nc1ccco1	1980 mg/kg
CCCC(CCC)C(N)=O	890 mg/kg
Cc1cccc(C)n1	400 mg/kg
CC1(C)C2CCC1(C)C(Oc1ccc(N)cc1)C2 (stereo not drawn)	660 mg/kg
CCOc1ccc(C2(c3ccc(OCC)cc3)CC2(Cl)Cl)cc1	755 mg/kg
C1CCC(N2CCOCC2)CC1	178 mg/kg
C[C@]12CCC(=O)C=C1C=C[C@@H]1[C@@H]2CC[C@@]2(C)[C@H]1CC[C@@]2(O)CCC(=O)O	650 mg/kg
O=C1C=CC(=O)N1c1ccc(Cl)cc1	440 mg/kg
CC(C)(C)c1ccccc1	3040 mg/kg
CC1(C)S[C@@H]2[C@H](NC(=O)C3(N)CCCCC3)C(=O)N2[C@H]1C(=O)O	5010 mg/kg
CN1CCC(=C2c3ccccc3CC(=O)c3sccc32)CC1	360 mg/kg
C=CCC1=C(C)C(OC(=O)C2C(C)(C)C2(C)C)CC1=O (stereo not drawn)	174 mg/kg
CCc1ccc(C)cc1	4850 mg/kg
O=C(OCCOc1ccc(Cl)cc1Cl)c1ccccc1	1700 mg/kg
O=C(O)COc1ccc(Cl)cc1Cl	405 mg/kg and 850 mg/kg
CC(C)(C)C(O)/C(=C\c1ccc(Cl)cc1)n1cncn1 (stereo not drawn)	1790 mg/kg
CN(N=Nc1ccccc1)N=Nc1ccccc1	212 mg/kg
COC(=O)C(c1ccccc1Cl)N1CCc2sccc2C1 (stereo not drawn)	1910 mg/kg
C=CCOC(=O)OC(=C)C(=O)OCC=C	390 mg/kg
C=COCCOCCOC=C	3730 mg/kg
CCC(=O)C1(c2cccc(O)c2)CCN(C)CC1	215 mg/kg
CC1(C)CN(c2ccccc2)NC1=O	30 mg/kg
ClCCCCCCCl	2680 mg/kg
CC/C=C\CCOCC=O	4100 mg/kg

Structure (SMILES)	LD50
Cc1ccccc1C(=O)Nc1cccc(OC(C)C)c1	10000 mg/kg
O=C1CCc2cc(C(=O)CCCN3CC=C(c4ccc(Cl)cc4)CC3)ccc2N1	500 mg/kg
CNC(=O)C(Cl)C(C)=O (stereo not drawn)	700 mg/kg
CN(C)CC/C=C1/c2ccccc2CSc2ccccc21	260 mg/kg
CC1=C[C@H]2O[C@@H]3[C@H](O)[C@@H](O)[C@](C)([C@@]2(CO)[C@H](O)C1=O)[C@]31CO1	19.5 mg/kg
COc1ccc2c(c1)c(CC(=O)Oc1ccccc1C(=O)Oc1ccccc1C(=O)O)c(C)n2C(=O)c1ccc(Cl)cc1	63 mg/kg
OC1(c2ccccc2)c2cc(F)ccc2C2=NCCN21 (stereo not drawn)	40 mg/kg
CC1=CC(=O)C(C(C)C)CC1 (stereo not drawn)	2450 mg/kg
O=C(O)CC(O)c1ccc(-c2ccc(Cl)cc2)o1 (stereo not drawn)	2460 mg/kg
CC1=C(CC(=O)O)c2cc(F)ccc2/C1=C\c1ccc(S(C)=O)cc1 (stereo not drawn)	264 mg/kg
O=C(CF)OCCOC(=O)CF	2.2 mg/kg
CC(C)c1ccc(-c2ccccc2)cc1	8500 mg/kg
CCCCCCOCCOC(=O)CCCCC(=O)OCCOCCCCCC	4290 mg/kg
O=[N+]([O-])c1c(Cl)c([N+](=O)[O-])c2[nH]c(C(F)(F)F)nc2c1Cl	117 mg/kg
O=C1C(Cl)=C(Cl)C(Cl)(Cl)C1(Cl)Cl	178 mg/kg
CC1CNCC(C)O1 (stereo not drawn)	2830 mg/kg
CC(=O)CC(=O)Nc1ccc(Cl)cc1C	3500 mg/kg
CCO[Si](CCl)(OCC)OCC	2400 mg/kg
CC(CN(C)C)C(C)(O)Cc1ccc(Cl)cc1 (stereo not drawn)	802 mg/kg
CCCCCCCCCCCCCCCCCC1=NCCN1CCO	3800 mg/kg
Fc1ccccc1	4400 mg/kg
CCCCCCCCCCCCN(C)C	800 mg/kg
Cc1cc(F)ccc1NC(=O)c1cc(Cl)cc(-c2ccc(Cl)cc2)c1O	2510 mg/kg
